Results published in patent publication US4904682A, “Treating mycoses with triazolylalkanols” (Bayer Aktiengesellschaft, priority 1987, dated 1990).
Converted amounts (≈) assume the structure as drawn.

Legend:
Microsporum canis = assay: Antimycotic in vitro activity, serial dilution test (MIC); assay type: cell-based; settings: Sabouraud's test medium, 28-37° C., 96 hours, read-out: MIC values in μg/ml of nutrient medium
Procedure: (§1) The in vitro tests were carried out in a serial dilution test using bacterial inocula of, on average, 5×10^3 to 10^4 bacteria/ml of substrate. Nutrients used were (a) for Dermatophytes and Hyphomycetes: Sabouraud's test medium (b) for yeasts: meat extract/dextrose broth. The incubation temperature was 28° C. to 37° C., and the incubation period was 24 to 96 hours for yeasts and 96 hours for Dermatophytes and Hyphomycetes.

Candida albicans = assay: as above; assay type: cell-based; settings: meat extract/dextrose broth, 28-37° C., 24 to 96 hours, read-out: MIC values in μg/ml of nutrient medium
Procedure: as §1

Aspergillus fumigatus = assay: as above; assay type: cell-based; settings: Sabouraud's test medium, 28-37° C., 96 hours, read-out: MIC values in μg/ml of nutrient medium
Procedure: as §1

Torulopsis glabrata = assay: as above; assay type: cell-based; settings: Nakaseomyces glabratus, meat extract/dextrose broth, 28-37° C., 24 to 96 hours, read-out: MIC values in μg/ml of nutrient medium
Procedure: as §1

[1] = tested on: Dermatophytes, Hyphomycetes and yeasts; assay: Antimycotic in vitro activity, serial dilution test (overall statement); assay type: cell-based; settings: in words
Procedure: as §1

Trichophyton mentagr. = assay: Antimycotic in vitro activity, serial dilution test (MIC); assay type: cell-based, Trichophyton mentagrophytes; settings: Sabouraud's test medium, 28-37° C., 96 hours, read-out: MIC values in μg/ml of nutrient medium
Procedure: as §1

Candida = assay: Antimycotic in vivo activity (oral) in mouse candidiasis; set-up: species or system Mice of the SPF-CF1 type; settings: in words, 25-100 mg/kg
Procedure: Mice of the SPF-CF1 type are intravenously inoculated with 1-2×10^6 logarithmically growing Candida cells, which have been suspended in physical logical saline solution. One hour before and seven hours after infection, the animals are orally treated with 25-100 mg/kg of body weight of the preparation in each case. Result Untreated animals died 3 to 6 days post infection. The survival rate on the 6th day post infection was about 5% in untreated control animals.

MIC (Microsporum canis) [µg/mL] | MIC (Candida albicans) [µg/mL] | MIC (Aspergillus fumigatus) [µg/mL] | MIC (Torulopsis glabrata) [µg/mL] | MIC (Trichophyton mentagr.) [µg/mL] | SMILES | antimycotic activity in vitro [1] | action in mouse candidiasis compared with compounds (A) and (B) (Candida)
16 (≈ 50.2 µM) | 16 (≈ 50.2 µM) | 16 (≈ 50.2 µM) | 16 (≈ 50.2 µM) | < 1 | CC(C)(C#N)C(O)(CCc1ccc(Cl)cc1)Cn1cncn1 (stereo not drawn) [Compound 2] | good antimycotic activity | –
16 (≈ 42 µM) | 8 (≈ 21 µM) | 4 (≈ 10.5 µM) | 8 (≈ 21 µM) | < 1 | CC(C)(C#N)C(O)(CSc1ccc(Br)cc1)Cn1cncn1 (stereo not drawn) [Compound 4] | good antimycotic activity | –
< 1 | 2 (≈ 5.52 µM) | 2 (≈ 5.52 µM) | 16 (≈ 44.1 µM) | < 1 | CC(C)(C#N)C(O)(COc1ccc(-c2ccccc2)cc1)Cn1cncn1 (stereo not drawn) [Compound 7] | good antimycotic activity | –
– | 4 (≈ 11.9 µM) | 8 (≈ 23.7 µM) | 4 (≈ 11.9 µM) | 8 (≈ 23.7 µM) | CC(C)(C#N)C(O)(CSc1ccc(Cl)cc1)Cn1cncn1 (stereo not drawn) [Compound 5] | good antimycotic activity | –
– | – | – | – | – | CC(C)(C#N)C(O)(COc1ccc(Cl)cc1)Cn1cncn1 (stereo not drawn) [Compound 8] | – | better action than the compounds (A) and (B)
